Blank lines part the entries; values can stand above or below the compound they belong to. Calls of active or inactive are those of the source.
Key:
[1] = molecular target: T1, DNA repair protein RAD52 homolog (Homo sapiens, UniProt P43351); assay type: functional, biochemical
T1 sequence (P43351 whole entry): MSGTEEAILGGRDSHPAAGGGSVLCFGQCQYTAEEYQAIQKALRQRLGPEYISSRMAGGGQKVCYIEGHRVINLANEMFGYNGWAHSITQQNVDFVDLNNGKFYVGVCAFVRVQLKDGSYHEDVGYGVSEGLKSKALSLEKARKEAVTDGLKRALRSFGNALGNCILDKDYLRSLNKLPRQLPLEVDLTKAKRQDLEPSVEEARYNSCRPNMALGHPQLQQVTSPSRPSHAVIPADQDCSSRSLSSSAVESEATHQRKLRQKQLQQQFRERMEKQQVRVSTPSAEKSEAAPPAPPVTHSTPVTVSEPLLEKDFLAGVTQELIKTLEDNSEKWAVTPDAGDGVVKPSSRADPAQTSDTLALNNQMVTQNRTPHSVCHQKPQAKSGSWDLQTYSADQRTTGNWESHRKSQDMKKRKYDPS

[2] = molecular target: T2, Polyadenylate-binding protein 1 (Homo sapiens, UniProt P11940); assay: MLLE binding blockers, Cy5 peptide tracer – biochemical, fluorescence polarization, Cy5-PAM2 peptide, secondary, miRNA deadenylation inhibitor project, dose response (AID 602260); assay type: functional; conditions: read-out: IC50_Mean
[3] = molecular target: T2, Polyadenylate-binding protein 1; assay: MLLE domain peptide-binding blockers, IC50 – biochemical, fluorescence polarization, FITC-PAM2 peptide, dose response (AID 602259); assay type: functional; conditions: read-out: IC50_Mean
[4] = Trypanosoma cruzi growth suppression in host cells – NIH3T3 host cells, beta-gal luminescence, confirmation (AID 2044); assay type: functional, cell-based;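 also: intracellular parasites grown in NIH/3T3 mouse fibroblasts as host cells; luminescent beta-galactosidase reporter signal from transgenic T. cruzi replicating inside host cells; inhibitors lower the luminescence signal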
[5] = NIH3T3 cell viability loss – ATP luminescence, mouse fibroblasts, counter-screen, dose response (AID 2010); assay type: functional, cell-based;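 also: cells exposed to compound for about 90 hours before reading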
[6] = molecular target: T3, Ubiquitin-conjugating enzyme E2 N (Homo sapiens, UniProt P61088); assay type: functional;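 also: Dose-response confirmation in a TR-FRET assay detecting UBC13-driven polyubiquitin chain formation, inhibition measured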
T3 sequence (P61088 whole entry): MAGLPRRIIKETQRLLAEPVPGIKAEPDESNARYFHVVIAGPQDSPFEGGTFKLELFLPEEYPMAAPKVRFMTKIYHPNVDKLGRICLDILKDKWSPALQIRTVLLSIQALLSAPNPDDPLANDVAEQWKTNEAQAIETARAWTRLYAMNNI

[7] = blockers of HIV-1 ZM109 envelope-driven cell-cell fusion – HeLa effector, CEM target cells, luciferase, cherry-pick, dose response (AID 652058); assay type: functional, cell-based;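 also: luciferase signal from HIV-1 Env mediated cell-cell fusion of effector and target cells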
[8] = HIV-1 AD8 envelope cell-cell fusion blockers – cherry-pick, dose response (AID 652062); assay type: functional, cell-based;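 also: luciferase signal from cell-cell fusion driven by HIV-1 clade B AD8 Env; potency is for inhibitors of fusion seen as a drop in luminescence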
[9] = system: Streptococcus sp. 'group A'; assay: Streptococcus pyogenes SK(-)GAS viability under kanamycin – luminescence, BacTiterGlo, confirmation, counter-screen for streptokinase expression inhibitor project, dose response (AID 1900); assay type: functional, organism-based
Streptococcus = assay: GAS UMAA2166 growth inhibition – luminescence, BacTiterGlo, counter-screen for streptokinase expression inhibitor project, dose response (AID 1915); assay type: functional, organism-based;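 also: potency for reduction of bacterial viability or growth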
[10] = molecular target: T4, Short transient receptor potential channel 4 (Mus musculus, UniProt Q9QUQ5); assay: calcium entry via TRPC4 opening agents – cell-based, HEK293 TRPC4/mu-opioid, Fluo-4 calcium, dose response (AID 434937); assay type: functional
T4 sequence (Q9QUQ5 whole entry): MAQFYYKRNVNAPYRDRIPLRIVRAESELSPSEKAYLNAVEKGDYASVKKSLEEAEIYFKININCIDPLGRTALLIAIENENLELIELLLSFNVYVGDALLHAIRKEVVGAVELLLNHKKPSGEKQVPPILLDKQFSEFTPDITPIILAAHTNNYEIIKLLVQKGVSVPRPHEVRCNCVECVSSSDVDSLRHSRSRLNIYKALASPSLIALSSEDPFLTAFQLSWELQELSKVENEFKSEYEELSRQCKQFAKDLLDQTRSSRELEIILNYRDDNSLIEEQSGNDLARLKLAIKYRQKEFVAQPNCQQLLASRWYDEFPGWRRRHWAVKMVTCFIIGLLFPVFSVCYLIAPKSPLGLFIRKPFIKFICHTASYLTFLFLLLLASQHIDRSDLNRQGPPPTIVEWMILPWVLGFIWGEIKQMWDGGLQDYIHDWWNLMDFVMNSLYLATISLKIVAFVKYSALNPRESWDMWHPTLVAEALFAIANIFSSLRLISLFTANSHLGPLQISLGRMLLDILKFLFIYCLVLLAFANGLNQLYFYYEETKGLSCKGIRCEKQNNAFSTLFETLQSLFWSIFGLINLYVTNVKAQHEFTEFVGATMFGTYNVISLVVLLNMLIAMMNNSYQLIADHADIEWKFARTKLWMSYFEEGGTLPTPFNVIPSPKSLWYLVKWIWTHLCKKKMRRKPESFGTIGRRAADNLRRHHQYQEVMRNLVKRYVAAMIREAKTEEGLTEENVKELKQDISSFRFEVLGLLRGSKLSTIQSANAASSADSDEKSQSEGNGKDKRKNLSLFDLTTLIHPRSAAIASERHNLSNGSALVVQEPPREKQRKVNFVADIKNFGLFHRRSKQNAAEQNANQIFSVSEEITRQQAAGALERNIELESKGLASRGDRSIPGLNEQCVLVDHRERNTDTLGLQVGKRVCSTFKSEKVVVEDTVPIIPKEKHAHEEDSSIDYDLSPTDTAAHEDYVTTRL

[11] = molecular target: T5, High affinity choline transporter 1 (Homo sapiens, UniProt Q9GZV3); assay: human choline transporter blockers, potency – cell-based, 5-point CRC, membrane potential dye, dose response (AID 504840); assay type: functional
T5 sequence (Q9GZV3 whole entry): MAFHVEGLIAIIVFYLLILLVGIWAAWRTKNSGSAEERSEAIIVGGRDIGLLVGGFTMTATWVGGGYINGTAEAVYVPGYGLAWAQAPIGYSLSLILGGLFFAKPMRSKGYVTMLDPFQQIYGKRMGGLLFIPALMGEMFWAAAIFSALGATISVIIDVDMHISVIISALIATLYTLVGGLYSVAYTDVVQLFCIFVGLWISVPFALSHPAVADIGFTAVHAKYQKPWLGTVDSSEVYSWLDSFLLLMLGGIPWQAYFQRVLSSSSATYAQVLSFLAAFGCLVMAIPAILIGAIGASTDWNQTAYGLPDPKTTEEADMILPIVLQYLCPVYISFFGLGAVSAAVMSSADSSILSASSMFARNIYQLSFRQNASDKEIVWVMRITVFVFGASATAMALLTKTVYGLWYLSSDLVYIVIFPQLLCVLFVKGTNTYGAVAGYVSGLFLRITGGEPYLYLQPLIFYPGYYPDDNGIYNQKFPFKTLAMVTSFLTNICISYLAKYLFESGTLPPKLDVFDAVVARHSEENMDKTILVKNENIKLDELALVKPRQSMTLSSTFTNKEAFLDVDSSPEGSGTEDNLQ

[12] = Fluorescence-based cell-based high throughput dose response assay for inhibitors of the interaction of nucleotide-binding oligomerization domain containing 2 (NOD2) and the receptor-interacting serine-threonine kinase 2 (RIPK2).; assay type: functional; conditions: Homo sapiens
Paired box protein Pax-8 = Paired box protein Pax-8 (Homo sapiens, UniProt Q06710); assay: PAX8 transcriptional activity inhibition in RMG-I – RMG-I cells, luciferase, cherry-pick, dose response (AID 687027); assay type: functional, cell-based;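 also: luciferase reporter driven by Pax8 target thyroperoxidase promoter measured by SteadyGlo luminescence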
Aminopeptidase N = molecular target: T6, Aminopeptidase N (Plasmodium falciparum FcB1/Columbia, UniProt O96935); assay: malaria alanyl aminopeptidase activity blockers – biochemical, fluorogenic H-Leu-NHMec substrate, 1536-well (AID 1445); design: species or system Plasmodium falciparum 3D7, 3D7
T6 sequence (O96935 whole entry): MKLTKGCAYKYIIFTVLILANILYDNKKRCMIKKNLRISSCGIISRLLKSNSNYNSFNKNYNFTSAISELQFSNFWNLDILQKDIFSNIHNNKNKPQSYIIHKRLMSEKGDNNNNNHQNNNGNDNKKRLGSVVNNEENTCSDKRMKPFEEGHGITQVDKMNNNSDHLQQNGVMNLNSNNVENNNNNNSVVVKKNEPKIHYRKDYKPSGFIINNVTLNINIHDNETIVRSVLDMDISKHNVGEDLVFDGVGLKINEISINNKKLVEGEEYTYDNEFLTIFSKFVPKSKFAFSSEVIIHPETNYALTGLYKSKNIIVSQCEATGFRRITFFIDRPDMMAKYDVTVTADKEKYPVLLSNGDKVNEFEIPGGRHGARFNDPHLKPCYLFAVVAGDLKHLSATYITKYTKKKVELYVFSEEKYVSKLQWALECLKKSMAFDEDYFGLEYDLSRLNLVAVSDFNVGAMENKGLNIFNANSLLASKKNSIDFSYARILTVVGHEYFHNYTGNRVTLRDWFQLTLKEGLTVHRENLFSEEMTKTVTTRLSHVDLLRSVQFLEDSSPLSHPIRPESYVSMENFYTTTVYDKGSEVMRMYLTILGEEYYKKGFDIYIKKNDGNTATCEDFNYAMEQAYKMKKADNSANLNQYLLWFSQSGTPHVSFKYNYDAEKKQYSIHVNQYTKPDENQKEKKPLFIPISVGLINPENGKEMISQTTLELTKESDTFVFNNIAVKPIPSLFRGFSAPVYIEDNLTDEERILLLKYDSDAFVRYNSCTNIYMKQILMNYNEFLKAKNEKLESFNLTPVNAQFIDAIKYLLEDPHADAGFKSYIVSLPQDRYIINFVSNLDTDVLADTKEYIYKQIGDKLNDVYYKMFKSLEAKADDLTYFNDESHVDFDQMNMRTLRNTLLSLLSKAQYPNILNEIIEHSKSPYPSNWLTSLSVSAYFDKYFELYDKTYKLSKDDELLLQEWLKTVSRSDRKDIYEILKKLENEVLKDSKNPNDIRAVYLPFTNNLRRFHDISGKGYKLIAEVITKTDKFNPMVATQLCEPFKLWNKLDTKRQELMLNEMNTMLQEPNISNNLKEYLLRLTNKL

[13] = NIH-3T3 fibroblast cytotoxicity, dose response, cytotoxicity control, cell-based, fluorescence, Alamar Blue, secondary assay (AID 2327); assay type: functional;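 also: NIH-3T3 mouse fibroblasts cultured with fluconazole at 8 µg/mL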
[14] = fluconazole-exposed Candida albicans growth modulators – fluorescence, retest, confirmation (AID 2467); assay type: functional, cell-based

T2 sequence (P11940 whole entry, the tested form may be a part): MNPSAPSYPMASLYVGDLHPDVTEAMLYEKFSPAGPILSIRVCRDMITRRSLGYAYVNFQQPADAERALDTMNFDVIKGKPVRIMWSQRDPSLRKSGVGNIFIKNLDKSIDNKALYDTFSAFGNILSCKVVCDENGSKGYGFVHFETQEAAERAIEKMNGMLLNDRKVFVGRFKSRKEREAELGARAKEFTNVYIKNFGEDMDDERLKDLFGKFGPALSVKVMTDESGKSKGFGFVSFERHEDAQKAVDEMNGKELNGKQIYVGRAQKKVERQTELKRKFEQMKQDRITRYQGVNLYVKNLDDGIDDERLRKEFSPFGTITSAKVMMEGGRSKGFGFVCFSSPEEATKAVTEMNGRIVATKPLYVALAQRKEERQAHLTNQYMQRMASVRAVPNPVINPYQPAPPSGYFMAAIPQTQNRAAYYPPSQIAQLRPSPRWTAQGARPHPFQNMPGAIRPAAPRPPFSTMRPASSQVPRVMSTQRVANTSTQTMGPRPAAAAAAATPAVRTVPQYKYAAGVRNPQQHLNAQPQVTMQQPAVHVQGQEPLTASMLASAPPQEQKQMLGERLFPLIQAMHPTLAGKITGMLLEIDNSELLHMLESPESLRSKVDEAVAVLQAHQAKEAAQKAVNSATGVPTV
Paired box protein Pax-8, sequence (Q06710 whole entry): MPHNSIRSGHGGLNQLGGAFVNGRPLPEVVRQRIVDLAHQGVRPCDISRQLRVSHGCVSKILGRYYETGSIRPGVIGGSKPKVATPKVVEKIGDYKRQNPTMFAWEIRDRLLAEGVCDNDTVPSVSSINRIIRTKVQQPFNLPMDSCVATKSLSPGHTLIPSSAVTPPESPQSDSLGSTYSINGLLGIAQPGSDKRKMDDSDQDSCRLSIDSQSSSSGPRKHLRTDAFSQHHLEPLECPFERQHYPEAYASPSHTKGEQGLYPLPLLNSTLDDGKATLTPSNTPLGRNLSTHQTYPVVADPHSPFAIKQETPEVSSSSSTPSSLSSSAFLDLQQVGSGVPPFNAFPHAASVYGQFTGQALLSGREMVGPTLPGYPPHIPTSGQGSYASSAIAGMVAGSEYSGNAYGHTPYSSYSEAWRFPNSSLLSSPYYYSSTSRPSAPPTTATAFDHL

- AC50 [1]: 9.25 µM (active)
Compound: CNC12CCc3cc(OC)c(OC)c(c31)-c1cc3c(cc1C2)OCO3 (configuration not stated)

- IC50 [2]: > 66 µM (inactive)
- IC50 [3]: > 66 µM (inactive)
Compound: CC(=O)NCC/N=C(\C)c1sc2ccccc2c1O

- IC50 [2]: > 66 µM (inactive)
- IC50 [3]: > 66 µM (inactive)
Compound: O=C(CSc1ccc2c(c1)OCCO2)NCCc1ccc(Cl)cc1Cl

Compound: COc1cccc(OCC(O)CN2CCN(CCN3C(=O)c4cccc5cccc(c45)C3=O)CC2)c1 (configuration not stated)
- EC50 [4]: 1.59 µM (active)
- EC50 [5]: > 60 µM (inconclusive)
- IC50 [6]: > 20 µM (inactive)
- AC50 [1]: 18.2 µM (active)

- IC50 [2]: > 66 µM (inactive)
- IC50 [3]: > 66 µM (inactive)
Compound: Cc1ccc(CN(C)C(=O)COC(=O)CSc2ccc([N+](=O)[O-])cc2)cc1

Compound: CC(=O)C1=C(C)NC(=S)NC1c1ccccc1 (configuration not stated)
- AC50 [7]: 27 µM (active)
- AC50 [8]: 45 µM (active)

Compound: Cc1onc(-c2ccccc2)c1C(=O)NC(=S)NNC(=O)c1ccco1
- EC50 [9]: 2.79 µM (active)
- EC50 (Streptococcus): 10.6 µM (active)
- EC50 [10]: 10.6 µM (active)
- IC50 [11]: 15.8 µM (active)

Compound: C=CC(=O)N1C/C(=C/c2ccc(Cl)cc2)C(=O)/C(=C\c2ccc(Cl)cc2)C1
- IC50 [12]: 2.58 µM (active)
- AC50 (Paired box protein Pax-8): 1.82 µM (active)

- IC50 [11]: 12 µM (active)
Compound: C#CC[N+]1(CC#Cc2cccc(C)c2)CCCCC1

- IC50 (Aminopeptidase N): 61.7 µM (active)
- IC50 [11]: 10.1 µM (active)
Compound: Cc1nn2c(N3CCN(C)CC3)c3c(nc2c1-c1ccccc1)CCCC3

Compound: O=C1NC(=O)/C(=C/c2cccc3ccccc23)S1
- EC50 [13]: > 160 µM (inactive)
- EC50 [14]: 0.76 µM (active)
- IC50 [11]: 11 µM (active)

- IC50 [6]: > 20 µM (inactive)
- AC50 [1]: 6.8 µM (active)
Compound: CCOC(=O)c1c(C)n(-c2ccc(C)cc2)c2ccc(OCC(O)CNCCCO)cc12 (configuration not stated)

Source: ChEMBL document CHEMBL1201862, “PubChem BioAssay data set” (2004)
